In the supplement of paper PMC10307832:

Experiments:
Test in all cases: relative viability (nuclei count vs DMSO), 5 days (fraction); higher = more cells survive
HCC-366 = test system: HCC-366
Procedure, shortened: (§1)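 Relative viability divides the nuclei count in treated wells by that in vehicle wells. Lung cancer cell lines were seeded in 1536-well plates, dosed by pin tool the next day, and fixed and stained after 5 days in one step with final 0.05% Triton X-100, 1% formaldehyde and 1 ug/ml Hoechst. Dosing was a single drug or a fixed anchor-drug dose plus five library-drug doses (not always all listed) in √10 steps, and values are medians of duplicate plates imaged at 4×.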

NCI-H2126 = test system: NCI-H2126
Procedure, shortened: as §1

NCI-H1993 = test system: NCI-H1993
Procedure, shortened: as §1

NCI-H441 = test system: NCI-H441
Procedure, shortened: as §1

HARA = test system: HARA
Procedure, shortened: as §1

LCLC-103H = test system: LCLC-103H
Procedure, shortened: as §1

NCI-H650 = test system: NCI-H650
Procedure, shortened: as §1

NCI-H1734 = test system: NCI-H1734
Procedure, shortened: as §1

SW 1573 = test system: SW 1573
Procedure, shortened: as §1

201T = test system: 201T
Procedure, shortened: as §1

NCI-H460 = test system: NCI-H460
Procedure, shortened: as §1

LCLC-97TM1 = test system: LCLC-97TM1
Procedure, shortened: as §1

HCC-15 = test system: HCC-15
Procedure, shortened: as §1

NCI-H2009 = test system: NCI-H2009
Procedure, shortened: as §1

NCI-H2023 = test system: NCI-H2023
Procedure, shortened: as §1

RERF-LC-KJ = test system: RERF-LC-KJ
Procedure, shortened: as §1

LOU-NH91 = test system: LOU-NH91
Procedure, shortened: as §1

HCC-78 = test system: HCC-78
Procedure, shortened: as §1

COR-L23 = test system: COR-L23
Procedure, shortened: as §1

A-427 = test system: A-427
Procedure, shortened: as §1

HCC-44 = test system: HCC-44
Procedure, shortened: as §1

Cc1cnc(-c2cnc(NCCNc3ccc(C#N)cn3)nc2-c2ccc(Cl)cc2Cl)[nH]1 + C[C@]1(O)C[C@@H](c2nc(-c3ccc4ccc(-c5ccccc5)nc4c3)c3c(N)nccn32)C1 [Linsitinib] (partner 1 µM)
relative viability (HCC-366; first compound 0.08 µM): 0.694
relative viability (HCC-366; first compound 0.253 µM): 0.557
relative viability (HCC-366; first compound 0.8 µM): 0.608
relative viability (HCC-366; first compound 2.53 µM): 0.28
relative viability (NCI-H2126; first compound 0.08 µM): 0.739
relative viability (NCI-H2126; first compound 0.253 µM): 0.726
relative viability (NCI-H2126; first compound 0.8 µM): 0.753
relative viability (NCI-H2126; first compound 2.53 µM): 0.704
relative viability (NCI-H1993; first compound 0.08 µM): 0.74
relative viability (NCI-H1993; first compound 0.253 µM): 0.763
relative viability (NCI-H1993; first compound 0.8 µM): 0.701
relative viability (NCI-H1993; first compound 2.53 µM): 0.784
relative viability (NCI-H441; first compound 0.08 µM): 0.662
relative viability (NCI-H441; first compound 0.253 µM): 0.445
relative viability (NCI-H441; first compound 0.8 µM): 0.606
relative viability (NCI-H441; first compound 2.53 µM): 0.519
relative viability (HARA; first compound 0.08 µM): 1.1
relative viability (HARA; first compound 0.253 µM): 0.847
relative viability (HARA; first compound 0.8 µM): 0.921
relative viability (HARA; first compound 2.53 µM): 0.933
relative viability (LCLC-103H; first compound 0.08 µM): 0.968
relative viability (LCLC-103H; first compound 0.253 µM): 1.11
relative viability (LCLC-103H; first compound 0.8 µM): 1.21
relative viability (LCLC-103H; first compound 2.53 µM): 1.09
relative viability (NCI-H650; first compound 0.08 µM): 1.02
relative viability (NCI-H650; first compound 0.253 µM): 0.769
relative viability (NCI-H650; first compound 0.8 µM): 0.93
relative viability (NCI-H650; first compound 2.53 µM): 0.712
relative viability (NCI-H1734; first compound 0.08 µM): 1.01
relative viability (NCI-H1734; first compound 0.253 µM): 0.763
relative viability (NCI-H1734; first compound 0.8 µM): 0.837
relative viability (NCI-H1734; first compound 2.53 µM): 0.849
relative viability (SW 1573; first compound 0.08 µM): 0.945
relative viability (SW 1573; first compound 0.253 µM): 0.744
relative viability (SW 1573; first compound 0.8 µM): 0.845
relative viability (SW 1573; first compound 2.53 µM): 0.695
relative viability (201T; first compound 0.08 µM): 1.03
relative viability (201T; first compound 0.253 µM): 1.01
relative viability (201T; first compound 0.8 µM): 1.02
relative viability (201T; first compound 2.53 µM): 1.01
relative viability (NCI-H460; first compound 0.08 µM): 0.918
relative viability (NCI-H460; first compound 0.253 µM): 0.623
relative viability (NCI-H460; first compound 0.8 µM): 0.974
relative viability (NCI-H460; first compound 2.53 µM): 0.782
relative viability (LCLC-97TM1; first compound 0.08 µM): 0.206
relative viability (LCLC-97TM1; first compound 0.253 µM): 0.177
relative viability (LCLC-97TM1; first compound 0.8 µM): 0.172
relative viability (LCLC-97TM1; first compound 2.53 µM): 0.208
relative viability (HCC-15; first compound 0.08 µM): 0.897
relative viability (HCC-15; first compound 0.253 µM): 0.811
relative viability (HCC-15; first compound 0.8 µM): 0.8
relative viability (HCC-15; first compound 2.53 µM): 0.835
relative viability (NCI-H2009; first compound 0.08 µM): 1.21
relative viability (NCI-H2009; first compound 0.253 µM): 1.14
relative viability (NCI-H2009; first compound 0.8 µM): 1.23
relative viability (NCI-H2009; first compound 2.53 µM): 1.1
relative viability (NCI-H2023; first compound 0.08 µM): 0.779
relative viability (NCI-H2023; first compound 0.253 µM): 0.649
relative viability (NCI-H2023; first compound 0.8 µM): 0.794
relative viability (NCI-H2023; first compound 2.53 µM): 1.12
relative viability (RERF-LC-KJ; first compound 0.08 µM): 0.948
relative viability (RERF-LC-KJ; first compound 0.253 µM): 0.828
relative viability (RERF-LC-KJ; first compound 0.8 µM): 0.843
relative viability (RERF-LC-KJ; first compound 2.53 µM): 0.877
relative viability (LOU-NH91; first compound 0.08 µM): 1.07
relative viability (LOU-NH91; first compound 0.253 µM): 0.951
relative viability (LOU-NH91; first compound 0.8 µM): 0.969
relative viability (LOU-NH91; first compound 2.53 µM): 0.89
relative viability (HCC-78; first compound 0.08 µM): 0.632
relative viability (HCC-78; first compound 0.253 µM): 0.437
relative viability (HCC-78; first compound 0.8 µM): 0.459
relative viability (HCC-78; first compound 2.53 µM): 0.435
relative viability (COR-L23; first compound 0.08 µM): 0.814
relative viability (COR-L23; first compound 0.253 µM): 0.833
relative viability (COR-L23; first compound 0.8 µM): 0.929
relative viability (COR-L23; first compound 2.53 µM): 0.962
relative viability (A-427; first compound 0.08 µM): 1.09
relative viability (A-427; first compound 0.253 µM): 1.12
relative viability (A-427; first compound 0.8 µM): 1.11
relative viability (A-427; first compound 2.53 µM): 1.15
relative viability (HCC-44; first compound 0.08 µM): 0.685
relative viability (HCC-44; first compound 0.253 µM): 0.553
relative viability (HCC-44; first compound 0.8 µM): 0.681
relative viability (HCC-44; first compound 2.53 µM): 0.787
